Drawing on US20240376085A1 (Janssen Pharmaceutica NV, priority 2021, published 2024), this text covers IC50 for 15 molecules.

One assay deals with T1, IL-17A : IL-17RA binding (Homo sapiens, UniProt Q16552, K93Q).
T1 construct: Name: IL-17A-Flag
The assay can be described thus: IL-17A(FLAG-tagged):IL-17RA(His-tagged) binding disruption Eu-HTRF assay, Protocol 1. The note with it: FLAG-IL-17A 2.5 nM at 2x final concentration; average if tested more than once. The text has this:
An antibody directed against the FLAG tag of IL-17A (SEQ ID NO: 1) is labeled with the HTRF donor chromophore (Europium-cryptate). IL-17A is present as a dimer that is “locked into” this quaternary structure due to the formation of loop-spanning […] disulfide bridges. The construct of IL-17RA used in the assay excludes the […] portion of the receptor and is fused to a C-terminal 10×His tag (SEQ ID NO:2). An antibody directed against the His tag of the IL-17RA chimera is labeled with the HTRF acceptor chromophore (“D2”). The fluorescence-resonance energy transfer (FRET) depends on the vicinity of the donor chromophore to the acceptor, and interruption of the binding between the IL-17A and IL-17RA causes the reduction/loss of FRET. Therefore, this assay allows to evaluate the compound effect on the binding IL-17A and IL-17RA by monitoring the fluorescence intensity of donor vs acceptor. The assay was run using either Protocol 1 or Protocol 2 as described below.
Protocol 1. 40 nl of 2-fold serial diluted compound solution for total 22 dilution points is added into each well of a 1536-well, white, low-volume, non-binding plate (Greiner #782904), then 2 μl of FLAG tagged IL-17A at 2× final concentration (2.5 nM) in solution of PBS+0.01% Triton-X100 is added to each well. The assay plate is briefly centrifuged then incubated for 1 h at rt. A mixed solution is prepared containing 2×5 nM 10HIS×IL-17RA, 2×2.5 nM Eu-anti-FLAG (CISBIO), 2×5 nM D2-anti-HIS (CISBIO) in PBS+0.01% Triton-X100+200 mM Potassium Fluoride (Sigma 60238) and 2 μl of mix is added to each well of the assay plate. The plate is briefly centrifuged then incubated for 2 h at rt. The HTRF intensities at the wavelength of donor (620 nm) and acceptor (665 nm) are measured using BMG Pherastar. The ratio between intensities at two wavelengths is calculated and plotted against the compound concentration and the data is fitted to a one-site competition model to yield IC50 of the compound.
For orientation: TR-FRET usually uses a lanthanide donor and a delayed reading to cut background.

Assay [1] has as its system IL-17A-induced G-CSF production in human normal keratinocyte (NHK). The assay can be described thus: NHK assay: IL-17A-induced G-CSF production in normal human keratinocytes. The assay is classed as cell-based. The note with it: Homo sapiens, Keratinocyte, 24 h, IL-17A 5 ng/mL, average if tested more than once. The procedure: IL-17A acts directly on keratinocytes through binding to dimeric receptor IL-17RA/RC and drives the production of a number of inflammatory mediators known to be elevated in psoriasis lesional tissue. IL-17A small molecule inhibitors that block the IL-17A to interact with IL-17R would inhibit the IL-17A signaling in its targeted cells such as keratinocytes. The compound functional activity is evaluated for its impact on IL-17A-induced G-CSF production in human normal keratinocyte (NHK).
Adult normal human keratinocytes are cultured in keratinocyte growth medium (Lonza) in a flask till reaching ˜90% confluence, then cells are transferred to a 384-well plate at density of 3000-4000 cell/well. Recombinant human IL-17A (Gibco PHC9174) is pre-incubated with titrated compound or DMSO for 1 h at rt then added to the cell culture plate. The final concentration of IL-17A is 5 ng/mL and DMSO is 0.2%, in the culture containing 5% FBS. Cells are cultured/treated for 24 h at 37° C. Supernatants are collected and G-CSF production is measured through HTRF technology using Human G-CSF Kit (CisBio). G-CSF concentration was extrapolated from the standard curve and IC50 is determined using GraphPad Prism. Cell viability is also evaluated using CellTiter-Glo kit (Promega) and effect of compound on cell viability is compared to DMSO control.

T1 sequence (Q16552 with tags, fused parts or gaps K93Q): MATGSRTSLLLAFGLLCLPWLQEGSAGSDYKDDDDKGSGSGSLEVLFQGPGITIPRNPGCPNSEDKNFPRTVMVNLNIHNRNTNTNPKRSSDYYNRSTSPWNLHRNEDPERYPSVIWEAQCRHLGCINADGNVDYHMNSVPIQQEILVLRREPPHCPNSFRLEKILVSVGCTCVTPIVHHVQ

`Cc1nonc1C(=O)N[C@@H](c1nc2ccc([C@H](NC(=O)CC3CC(F)(F)C3)C3CC3)cc2[nH]1)[C@@H]1CCCCO1` (relative stereo) [Example 249, N—((S*)-(6-((R)-Cyclopropyl(2-(3,3-difluorocyclobutyl)acetamido)methyl)-1H-benzo[d]imidazol-2-yl)((S*)-tetrahydro-2H-pyran-2-yl)methyl)-4-methyl-1,2,5-oxadiazole-3-carboxamide]: the IC50 (at IL-17A : IL-17RA binding; in assay [1]) was over 100 nM throughout. Turning to `Cc1nonc1C(=O)N[C@H](c1nc2ccc([C@H](NC(=O)CC3CC(F)(F)C3)C3CC3)cc2[nH]1)C1CCC(F)(F)CO1` (single isomer, unassigned) [Example 260, N—((R)-(6-((R)-Cyclopropyl(2-(3,3-difluorocyclobutyl)acetamido)methyl)-1H-benzo[d]imidazol-2-yl)((S*)-5,5-difluorotetrahydro-2H-pyran-2-yl)methyl)-4-methyl-1,2,5-oxadiazole-3-carboxamide], the IC50 (on IL-17A : IL-17RA binding; in assay [1]) was over 100 nM throughout. Take `CCc1nonc1C(=O)N[C@@H](CC(C)(C)C(F)(F)F)c1nc2cc([C@H](NC(=O)CCC(F)(F)F)C3CC3)ccc2[nH]1` (relative stereo) [Example 190, N—((S*)-1-(5-((R*)-Cyclopropyl(4,4,4-trifluorobutanamido)methyl)-1H-benzo[d]imidazol-2-yl)-4,4,4-trifluoro-3,3-dimethylbutyl)-4-ethyl-1,2,5-oxadiazole-3-carboxamide]: the IC50 (on IL-17A : IL-17RA binding; in assay [1]) was under 50 nM each time.

Regarding `C[C@@H](NC(=O)CCC(F)(F)F)c1ccc2[nH]c([C@@H](NC(=O)c3cnn(CCOC(F)F)c3)C3CCC(F)(F)CC3)nc2c1` [Example 27, N—[(S)-(4,4-Difluorocyclohexyl)-[6-[(1R)-1-(4,4,4-trifluorobutanoylamino)ethyl]-1H-benzimidazol-2-yl]methyl]-1-[2-(difluoromethoxy)ethyl]pyrazole-4-carboxamide], the concentration for half-maximal inhibition (IC50) (at IL-17A : IL-17RA binding; in assay [1]) was over 100 nM throughout. `CC(Cn1nncc1C(=O)N[C@H](c1nc2ccc([C@@H](C)NC(=O)CCC(F)(F)F)cc2[nH]1)C1CCC(F)(F)CC1)C(F)(F)F` (single isomer, unassigned) [Example 71, N—((S)-(4,4-Difluorocyclohexyl)(6-((R)-1-(4,4,4-trifluorobutanamido)ethyl)-1H-benzo[d]imidazol-2-yl)methyl)-1-((R*)-3,3,3-trifluoro-2-methylpropyl)-1H-1,2,3-triazole-5-carboxamide]: the IC50 (at IL-17A : IL-17RA binding; in assay [1]) was over 100 nM in each case. With `C[C@@H](NC(=O)CCC(F)(F)F)c1ccc2[nH]c([C@@H](NC(=O)c3cnn(CC45CC(C#N)(C4)C5)n3)C3CCC(F)(F)CC3)nc2c1` [Example 78, 2-((3-Cyanobicyclo[1.1.1]pentan-1-yl)methyl)-N—((S)-(4,4-difluorocyclohexyl)(5-((R)-1-(4,4,4-trifluorobutanamido)ethyl)-1H-benzo[d]imidazol-2-yl)methyl)-2H-1,2,3-triazole-4-carboxamide], the IC50 (at IL-17A : IL-17RA binding; in assay [1]) was over 100 nM in each case. As for `C[C@@H](NC(=O)CCC(F)(F)F)c1ccc2[nH]c([C@@H](NC(=O)c3ncnn3CC3CC3)C3CCC(F)(F)CC3)nc2c1` [Example 30, 2-(Cyclopropylmethyl)-N—[(S)-(4,4-difluorocyclohexyl)-[6-[(1R)-1-(4,4,4-trifluorobutanoylamino)ethyl]-1H-benzimidazol-2-yl]methyl]-1,2,4-triazole-3-carboxamide], the IC50 is 50 to 100 nM at IL-17A : IL-17RA binding and over 100 nM in assay [1]. In the case of `C[C@@H](NC(=O)CCC(F)(F)F)c1ccc2[nH]c([C@@H](NC(=O)c3cn(CCCC(F)(F)F)nn3)C3CCC(F)(F)CC3)nc2c1` [Example 21, N—[(S)-(4,4-Difluorocyclohexyl)-[6-[(1R)-1-(4,4,4-trifluorobutanoylamino)ethyl]-1H-benzimidazol-2-yl]methyl]-1-(4,4,4-trifluorobutyl)triazole-4-carboxamide], the IC50 (at IL-17A : IL-17RA binding; in assay [1]) was over 100 nM throughout. As for `CC(C)c1nocc1C(=O)N[C@H](c1nc2cc([C@@H](C)NC(=O)CCC(F)(F)F)ccc2[nH]1)C1CCC(F)(F)CC1` [Example 204, N—((S)-(4,4-Difluorocyclohexyl)(5-((R)-1-(4,4,4-trifluorobutanamido)ethyl)-1H-benzo[d]imidazol-2-yl)methyl)-3-isopropylisoxazole-4-carboxamide], the IC50 (at IL-17A : IL-17RA binding; in assay [1]) was under 50 nM each time. Regarding `C[C@@H](NC(=O)CCC(F)(F)F)c1ccc2[nH]c([C@@H](NC(=O)c3cnn(CCOC(F)F)n3)C3CCC(F)(F)CC3)nc2c1` [Example 33, N—[(S)-(4,4-Difluorocyclohexyl)-[6-[(1R)-1-(4,4,4-trifluorobutanoylamino)ethyl]-1H-benzimidazol-2-yl]methyl]-2-[2-(difluoromethoxy)ethyl]triazole-4-carboxamide], the IC50 (on IL-17A : IL-17RA binding; in assay [1]) was over 100 nM throughout. Consider `C[C@@H](NC(=O)CCC(F)(F)F)c1ccc2[nH]c([C@@H](NC(=O)c3ncn(C)n3)C3CCC(F)(F)CC3)nc2c1` [Example 32, N—[(S)-(4,4-Difluorocyclohexyl)-[6-[(1R)-1-(4,4,4-trifluorobutanoylamino)ethyl]-1H-benzimidazol-2-yl]methyl]-1-methyl-1,2,4-triazole-3-carboxamide], for which the IC50 (on IL-17A : IL-17RA binding; in assay [1]) was over 100 nM throughout.

On to `CC(C)c1nonc1C(=O)NC(CC(C)(C)C(F)(F)F)c1nc2cc([C@@H](C)NC(=O)CCC(F)(F)F)ccc2[nH]1` (single isomer, unassigned) [Example 57, 4-Isopropyl-N—((S*)-4,4,4-trifluoro-3,3-dimethyl-1-(5-((R)-1-(4,4,4-trifluorobutanamido)ethyl)-1H-benzo[d]imidazol-2-yl)butyl)-1,2,5-oxadiazole-3-carboxamide], for which the IC50 (at IL-17A : IL-17RA binding; in assay [1]) was under 50 nM in each case. Consider `CC(C)C(NC(=O)CCC(F)(F)F)c1ccc2[nH]c([C@@H](NC(=O)c3ccnn3C)C3CCC(F)(F)CC3)nc2c1` (single isomer, unassigned) [Example 44, N—((S)-(4,4-Difluorocyclohexyl)(5-((S*)-2-methyl-1-(4,4,4-trifluorobutanamido)propyl)-1H-benzo[d]imidazol-2-yl)methyl)-1-methyl-1H-pyrazole-5-carboxamide], for which the IC50 (at IL-17A : IL-17RA binding; in assay [1]) was over 100 nM in each case.

In the case of `CC(NC(=O)CCC(F)(F)F)c1ccc2nc([C@H](CC(C)(C)C(F)(F)F)NC(=O)c3ccnn3CCC(F)(F)F)[nH]c2c1` (single isomer, unassigned) [Example 229, N—((S)-4,4,4-Trifluoro-3,3-dimethyl-1-(6-((S*)-1-(4,4,4-trifluorobutanamido)ethyl)-1H-benzo[d]imidazol-2-yl)butyl)-1-(3,3,3-trifluoropropyl)-1H-pyrazole-5-carboxamide], the IC50 (at IL-17A : IL-17RA binding; in assay [1]) was over 100 nM throughout.

`C[C@@H](NC(=O)CCC(F)(F)F)c1ccc2[nH]c([C@@H](NC(=O)c3nnc(CCC(F)(F)F)o3)C3CCC(F)(F)CC3)nc2c1` [Example 187, N—((S)-(4,4-Difluorocyclohexyl)(5-((R)-1-(4,4,4-trifluorobutanamido)ethyl)-1H-benzo[d]imidazol-2-yl)methyl)-5-(3,3,3-trifluoropropyl)-1,3,4-oxadiazole-2-carboxamide] displayed a half-inhibitory concentration (IC50) in assay [1] of over 100 nM.

A word on the IC50: it is the concentration needed to halve the response being measured. Low values mean greater potency, high ones weaker potency.
